{"source": "paper PMC3139790", "about": "(Bioorganic & medicinal chemistry, 2011)", "key": {"[1]": {"system": "genotype 1b and 2a HCV replicons", "test": "HCV replicon assays, genotype 1b and 2a stated together", "format": "cell-based, hepatitis C virus", "details": "for EC50: Hepatitis C virus, GETYPE1B, read-out: EC50 in genotype 1b and 2a HCV replicons"}, "HIV-1LAI [2]": {"system": "HIV-1LAI", "details": "HIV-1 infected MT-2 cells, previous studies; cited from earlier work"}, "[3]": {"system": "genotype 2a HCV replicon (JFH-1)", "test": "HCV replicon assay, JFH-1", "format": "cell-based, hepatitis C virus", "details": "CC50/EC50, genotype 2a"}, "[4]": {"system": "genotype 1b HCV replicon (BM4-5)", "test": "HCV replicon assay, BM4-5", "format": "cell-based, hepatitis C virus", "details": "CC50/EC50, genotype 1b"}, "Vaccinia": {"system": "Vaccinia", "details": "read-out: EC50 Vaccinia; in vitro; ref Beadle et al. (ref. [13]); cited from earlier work"}, "HCMV": {"system": "HCMV", "details": "read-out: EC50 HCMV; in vitro; ref Beadle et al. (ref. [13]); cited from earlier work"}, "Cowpox": {"system": "Cowpox", "details": "read-out: EC50 Cowpox; cited from earlier work"}, "HIV-1LAI [5]": {"system": "HIV-1LAI", "test": "HIV-1 inhibition assay in MT-2 cells", "format": "cell-based", "details": "HIV-1 in MT-2 cells"}}, "data": [{"smiles": "CCCCCCCCCCCCCCCCCCOCCOP(=O)([O-])CO[C@H](COC)Cn1ccc(N)nc1=O.[Na+]", "note": "[Compound 40, Octadecyloxyethyl (S)-1-[(3-methoxy-2-phosphonomethoxy)propyl]cytosine]", "values": [{"measurement": "anti-HCV activity (in words)", "setting": "[1]; genotype 1b and 2a replicons", "value": "inactive"}]}, {"smiles": "Nc1ncnc2c1ncn2CCOCP(=O)(O)O", "note": "[adefovir]", "values": [{"measurement": "EC50", "setting": "HIV-1LAI [2]", "value": 1100, "unit": "nM"}]}, {"smiles": "CCCCCCCCCCCCCCCCOCCCOP(=O)(O)CO[C@H](COC)Cn1cnc2c(OC)nc(N)nc21", "note": "[Compound 44, Hexadecyloxypropyl (S)-9-[(3-methoxy-2-phosphonomethoxy)propyl]-6-O-methylguanine]", "values": [{"measurement": "EC50", "setting": "[1]", "value": "18000 to 26000", "unit": "nM"}]}, {"smiles": "CCCCCCCCCCCCCCCCCCOCCOP(=O)([O-])CO[C@H](COC)Cn1cnc2c(=O)[nH]c(N)nc21.[Na+]", "note": "[Compound 34, Octadecyloxyethyl (S)-9-[(3-methoxy-2-phosphonomethoxy)propyl]guanine]", "values": [{"measurement": "Selectivity Index JFH-1 (2a)", "setting": "[3]", "value": ">14.0"}, {"measurement": "Selectivity Index BM4-5 (1b)", "setting": "[4]", "value": ">18.2"}]}, {"smiles": "C[C@H](Cn1cnc2c(N)ncnc21)OCP(=O)(O)O", "note": "[tenofovir]", "values": [{"measurement": "EC50", "setting": "HIV-1LAI [2]", "value": 650, "unit": "nM"}]}, {"smiles": "CCCCCCCCCCCCCCCCOCCCOP(=O)(O)CO[C@H](COC)Cn1cnc2c(OC)ncnc21", "note": "[Compound 43, Hexadecyloxypropyl (S)-9-[(3-methoxy-2-phosphonomethoxy)propyl]-6-methoxypurine]", "values": [{"measurement": "EC50", "setting": "[1]", "value": "8900 to 12500", "unit": "nM"}]}, {"smiles": "CCCCCCCCCCCCCCCCCCOCCOP(=O)(O)CO[C@H](CO)Cn1cnc2c(N)ncnc21", "note": "[Compound 1, octadecyloxyethyl 9-(S)-[3-hydroxy-2-(phosphonomethoxy)propyl]adenine]", "values": [{"measurement": "EC50", "setting": "Vaccinia", "value": "20 ± 10", "unit": "nM"}, {"measurement": "EC50", "setting": "HCMV", "value": "3 ± 1", "unit": "nM"}, {"measurement": "EC50", "setting": "Cowpox", "value": "50 ± 40", "unit": "nM"}]}, {"smiles": "CCCCCCCCCCCCCCCCCCOCCOP(=O)(O)CO[C@H](COC)Cn1cnc2c(N)ncnc21", "note": "[Compound 15, Octadecyloxyethyl (S)-9-[(3-methoxy-2-phosphonomethoxy)propyl]adenine]", "values": [{"measurement": "EC50", "setting": "[1]", "value": "1000 to 2000", "unit": "nM"}]}, {"smiles": "CCCCCCCCCCCCCCCCCCOCCOP(=O)([O-])CO[C@@H](COC)Cn1cnc2c(=O)[nH]c(N)nc21.[Na+]", "note": "[Compound 35, Octadecyloxyethyl (R)-9-[(3-methoxy-2-phosphonomethoxy)propyl]guanine]", "values": [{"measurement": "Selectivity Index JFH-1 (2a)", "setting": "[3]", "value": ">12.1"}, {"measurement": "Selectivity Index", "setting": "HIV-1LAI [5]", "value": ">4.4×10^6"}, {"measurement": "Selectivity Index BM4-5 (1b)", "setting": "[4]", "value": ">11.9"}]}]}
